Reference: PubChem BioAssay (NCI)
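Exposure lasted 48 hours, with cells grown in 96-well plates and compounds tested at five concentrations. GI50 is the concentration that inhibits growth by half. TGI is the concentration that stops growth completely.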

Legend:
Experiment in all cases: NCI-60 cell line screen, 48 h
NCI-H460 lung = system: NCI-H460 lung
K-562 leukemia = system: K-562 leukemia
HCT-116 colon = system: HCT-116 colon
SK-MEL-28 melanoma = system: SK-MEL-28 melanoma
T-47D breast = system: T-47D breast
BT-549 breast = system: BT-549 breast
SK-MEL-2 melanoma = system: SK-MEL-2 melanoma
SF-268 CNS = system: SF-268 CNS
SW-620 colon = system: SW-620 colon
IGROV1 ovarian = system: IGROV1 ovarian

## N#Cc1cccc(N2C(=O)C3C4C=CC(C3C2=O)C2C(=O)N(c3cccc(C#N)c3)C(=O)C42)c1 (stereo not given)
NCI-H460 lung
  TGI: > 63.1 µM
K-562 leukemia
  TGI: 55.8 µM
HCT-116 colon
  TGI: 31.6 µM
SK-MEL-28 melanoma
  TGI: > 63.1 µM
T-47D breast
  TGI: > 31.6 µM
BT-549 breast
  TGI: 72.1 µM
SK-MEL-2 melanoma
  TGI: 34.7 µM
SF-268 CNS
  TGI: 49.7 µM
SW-620 colon
  TGI: > 100 µM
IGROV1 ovarian
  TGI: 49.2 µM

## COc1ccc(-c2cc(=O)c3c(O)c(OC)c(OC)c(OC)c3o2)cc1
NCI-H460 lung
  TGI: > 100 µM
K-562 leukemia
  TGI: > 100 µM
HCT-116 colon
  TGI: > 100 µM
SK-MEL-28 melanoma
  TGI: > 100 µM
T-47D breast
  TGI: > 100 µM
BT-549 breast
  TGI: > 100 µM
SK-MEL-2 melanoma
  TGI: > 81.3 µM
SF-268 CNS
  TGI: > 100 µM
SW-620 colon
  TGI: > 100 µM
IGROV1 ovarian
  TGI: > 100 µM

## Nc1cccc2c1C(=O)c1cccc(NC(=O)c3ccccc3)c1C2=O
NCI-H460 lung
  GI50: 0.371 µM
  TGI: > 32.6 µM
K-562 leukemia
  GI50: 0.133 µM
  TGI: > 100 µM
HCT-116 colon
  GI50: 0.401 µM
  TGI: 5.17 µM
SK-MEL-28 melanoma
  GI50: 1.11 µM
  TGI: 21 µM
T-47D breast
  GI50: 1.1 µM
  TGI: > 100 µM
BT-549 breast
  GI50: 0.674 µM
  TGI: 33.9 µM
SK-MEL-2 melanoma
  GI50: 0.25 µM
  TGI: 7.26 µM
SF-268 CNS
  GI50: 0.576 µM
  TGI: > 100 µM
SW-620 colon
  GI50: 0.267 µM
  TGI: > 100 µM
IGROV1 ovarian
  GI50: 0.503 µM
  TGI: > 81.4 µM

## CCOC(=O)CN1C(=O)c2cc([N+](=O)[O-])cc3cc([N+](=O)[O-])cc(c23)C1=O
NCI-H460 lung
  TGI: > 100 µM
K-562 leukemia
  TGI: > 100 µM
HCT-116 colon
  TGI: > 100 µM
SK-MEL-28 melanoma
  TGI: > 100 µM
T-47D breast
  TGI: > 100 µM
BT-549 breast
  TGI: > 100 µM
SK-MEL-2 melanoma
  TGI: > 62.3 µM
SF-268 CNS
  TGI: > 94.6 µM
SW-620 colon
  TGI: > 100 µM
IGROV1 ovarian
  TGI: > 100 µM

## Cc1cc(O)c(-c2ccc([C@@H](C)CN(C)C)cc2)c2c1[nH]c(=O)c1sccc12
NCI-H460 lung
  GI50: 0.335 µM
  TGI: > 49.1 µM
K-562 leukemia
  GI50: 0.482 µM
  TGI: > 60.5 µM
HCT-116 colon
  GI50: 0.406 µM
  TGI: 8.87 µM
SK-MEL-28 melanoma
  GI50: 1.33 µM
  TGI: 5.56 µM
T-47D breast
  GI50: 0.309 µM
  TGI: 5.19 µM
BT-549 breast
  GI50: 0.574 µM
  TGI: 3.44 µM
SK-MEL-2 melanoma
  GI50: 0.679 µM
  TGI: 3.04 µM
SF-268 CNS
  GI50: 1.14 µM
  TGI: 14.8 µM
SW-620 colon
  GI50: 0.556 µM
  TGI: > 61.9 µM
IGROV1 ovarian
  GI50: 0.534 µM
  TGI: 5.16 µM

## COCCNc1cncc(C(N)=O)c1
NCI-H460 lung
  TGI: > 100 µM
K-562 leukemia
  TGI: > 100 µM
HCT-116 colon
  TGI: > 100 µM
SK-MEL-28 melanoma
  TGI: > 100 µM
T-47D breast
  TGI: > 100 µM
BT-549 breast
  TGI: > 100 µM
SK-MEL-2 melanoma
  TGI: > 100 µM
SF-268 CNS
  TGI: > 100 µM
SW-620 colon
  TGI: > 100 µM
IGROV1 ovarian
  TGI: > 100 µM

## CC(C)c1ccc(NC(=O)Cc2ccc(Nc3ncnc4cc(-c5cnn(CCN(C)C)c5)ccc34)cc2)cc1
NCI-H460 lung
  GI50: 0.19 µM
  TGI: 2.33 µM
K-562 leukemia
  GI50: 2.12 µM
  TGI: 5.94 µM
HCT-116 colon
  GI50: 1.19 µM
  TGI: 2.7 µM
SK-MEL-28 melanoma
  GI50: > 10 µM
  TGI: > 10 µM
T-47D breast
  GI50: 1.38 µM
  TGI: 3.73 µM
BT-549 breast
  GI50: 3.96 µM
  TGI: > 10 µM
SK-MEL-2 melanoma
  GI50: > 10 µM
  TGI: > 10 µM
SF-268 CNS
  GI50: 1.32 µM
  TGI: 3.09 µM
SW-620 colon
  GI50: 1.18 µM
  TGI: 2.76 µM
IGROV1 ovarian
  GI50: 1.48 µM
  TGI: 3.64 µM

## CC[C@H](C)[C@H](NC(=O)c1cccn1C)C(=O)N(C)[C@H](C[C@@H](OC(C)=O)c1nc(C(=O)N[C@@H](Cc2ccccc2)C[C@H](C)C(=O)OC)cs1)C(C)C
NCI-H460 lung
  GI50: 0.123 µM
  TGI: > 14.4 µM
K-562 leukemia
  GI50: 0.177 µM
  TGI: > 33.3 µM
HCT-116 colon
  GI50: 0.127 µM
  TGI: > 11.3 µM
SK-MEL-28 melanoma
  GI50: 1.5 µM
  TGI: > 33.3 µM
T-47D breast
  GI50: 0.0946 µM
  TGI: > 33.3 µM
BT-549 breast
  GI50: 0.155 µM
  TGI: 2.48 µM
SK-MEL-2 melanoma
  GI50: 0.347 µM
  TGI: > 33.3 µM
SF-268 CNS
  GI50: 0.351 µM
  TGI: > 33.3 µM
SW-620 colon
  GI50: 0.205 µM
  TGI: > 33.3 µM
IGROV1 ovarian
  GI50: 0.228 µM
  TGI: > 33.3 µM

## COc1cc(NCCCCCN=C(N)NC(N)=NC(C)C)c2ncccc2c1
NCI-H460 lung
  GI50: 4.49 µM
  TGI: 18.1 µM
K-562 leukemia
  GI50: 0.607 µM
  TGI: 19.3 µM
HCT-116 colon
  GI50: 0.392 µM
  TGI: 10.5 µM
SK-MEL-28 melanoma
  GI50: 2.92 µM
  TGI: 10.4 µM
T-47D breast
  GI50: 0.302 µM
  TGI: 1.71 µM
BT-549 breast
  GI50: 2.03 µM
  TGI: 5.61 µM
SK-MEL-2 melanoma
  GI50: 1.95 µM
  TGI: 5.36 µM
SF-268 CNS
  GI50: 0.689 µM
  TGI: 13.8 µM
SW-620 colon
  GI50: 0.927 µM
  TGI: 14 µM
IGROV1 ovarian
  GI50: 0.228 µM
  TGI: 0.809 µM

## CC(C)(C)OC(=O)Nc1ccc2c(c1)C(NC(=O)Nc1cccc(C#N)c1)CC(C)(C)O2 (stereo not given)
NCI-H460 lung
  GI50: 3 µM
  TGI: > 100 µM
K-562 leukemia
  GI50: 2.12 µM
  TGI: > 100 µM
HCT-116 colon
  GI50: 1.24 µM
  TGI: > 44.6 µM
SK-MEL-28 melanoma
  GI50: 5.34 µM
  TGI: 71.4 µM
T-47D breast
  GI50: 2.52 µM
  TGI: 33 µM
BT-549 breast
  GI50: 2.65 µM
  TGI: 18 µM
SK-MEL-2 melanoma
  GI50: 6.4 µM
  TGI: 31.4 µM
SF-268 CNS
  GI50: 5.1 µM
  TGI: > 100 µM
SW-620 colon
  GI50: 3.61 µM
  TGI: > 100 µM
IGROV1 ovarian
  GI50: 4.44 µM
  TGI: > 100 µM

## COc1cc2c3c(n(CCCNCCCN)c(=O)c2cc1OC)-c1cc2c(cc1C3=O)OCO2
NCI-H460 lung
  GI50: 4.07 µM
  TGI: 18 µM
K-562 leukemia
  GI50: 3.4 µM
  TGI: 10.4 µM
HCT-116 colon
  GI50: 1.34 µM
  TGI: 5.32 µM
SK-MEL-28 melanoma
  GI50: 4.37 µM
  TGI: 17.8 µM
T-47D breast
  GI50: 2.8 µM
  TGI: 14.7 µM
BT-549 breast
  GI50: 6.49 µM
  TGI: 20.6 µM
SK-MEL-2 melanoma
  GI50: 2.35 µM
  TGI: 7.33 µM
SF-268 CNS
  GI50: 1.98 µM
  TGI: 10.5 µM
SW-620 colon
  GI50: 3.29 µM
  TGI: 16.4 µM
IGROV1 ovarian
  GI50: 2.69 µM
  TGI: 18.9 µM

## N#CC1=C(N)NC(=O)NC12Nc1ccccc1N2
NCI-H460 lung
  GI50: > 100 µM
  TGI: > 100 µM
K-562 leukemia
  GI50: > 100 µM
  TGI: > 100 µM
HCT-116 colon
  GI50: > 100 µM
  TGI: > 100 µM
SK-MEL-28 melanoma
  GI50: > 100 µM
  TGI: > 100 µM
T-47D breast
  GI50: > 100 µM
  TGI: > 100 µM
BT-549 breast
  GI50: > 100 µM
  TGI: > 100 µM
SK-MEL-2 melanoma
  GI50: > 100 µM
  TGI: > 100 µM
SF-268 CNS
  GI50: > 100 µM
  TGI: > 100 µM
SW-620 colon
  GI50: > 100 µM
  TGI: > 100 µM
IGROV1 ovarian
  GI50: > 100 µM
  TGI: > 100 µM
